#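 Five concentrations, 48 hours, 96-well plates. GI50 marks 50% less growth. At the TGI there is no net growth.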
# Key:
# Assay in all cases: NCI anticancer screen, dose series, 48 h
# [1] = tested on: ACHN renal
# [2] = tested on: MALME-3M melanoma
# [3] = tested on: M14 melanoma
# [4] = tested on: NCI-H460 lung
# [5] = tested on: SK-MEL-5 melanoma
# [6] = tested on: KM12 colon
# [7] = tested on: LOX IMVI melanoma
# [8] = tested on: TK-10 renal
# [9] = tested on: COLO 205 colon
# [10] = tested on: HCT-116 colon
Structure (SMILES),GI50 [1],TGI [1],GI50 [2],TGI [2],GI50 [3],TGI [3],GI50 [4],TGI [4],GI50 [5],TGI [5],GI50 [6],TGI [6],GI50 [7],TGI [7],GI50 [8],TGI [8],GI50 [9],TGI [9],GI50 [10],TGI [10]
O=C(CN1N=C(c2ccc(F)cc2)CCC1=O)Nc1nc2ccccc2s1,4.23 µM,> 100 µM,0.621 µM,1.56 µM,33.2 µM,> 100 µM,> 51.5 µM,> 100 µM,> 93.2 µM,> 100 µM,> 25.9 µM,> 100 µM,0.179 µM,0.344 µM,> 100 µM,> 100 µM,> 100 µM,> 100 µM,46.9 µM,> 100 µM
Oc1cc(-n2cccn2)c(O)cc1-n1cccn1,–,37.4 µM,–,> 78.1 µM,–,60.4 µM,–,> 100 µM,–,58 µM,–,> 86.5 µM,–,42.4 µM,–,49.6 µM,–,37.9 µM,–,> 64.1 µM
COC(=O)C(C(=O)C(=O)Nc1ccc([N+](=O)[O-])cc1)c1nc2ccc([N+](=O)[O-])cc2[nH]c1=O (stereo not drawn),–,> 100 µM,–,> 100 µM,–,> 100 µM,–,> 100 µM,–,> 100 µM,–,> 100 µM,–,> 100 µM,–,> 100 µM,–,> 100 µM,–,> 100 µM
N#CCCNc1nonc1-c1nc2ccccc2n1CC(=O)c1ccc(NC(=O)[C@@H](N)CCCCN)cc1,0.0583 µM,> 100 µM,> 100 µM,> 100 µM,0.0199 µM,0.0685 µM,0.0344 µM,> 100 µM,0.03 µM,0.197 µM,0.0279 µM,–,0.0513 µM,> 100 µM,11.9 µM,> 100 µM,0.0273 µM,0.0709 µM,0.04 µM,> 100 µM
C[n+]1c2ccccc2nc2c(N)cc(N)cc21,45.6 µM,> 100 µM,2.39 µM,9.77 µM,19.1 µM,76.3 µM,16.8 µM,59 µM,2.56 µM,7.09 µM,13.7 µM,> 100 µM,18 µM,94 µM,64.9 µM,> 100 µM,3.49 µM,19.4 µM,10.5 µM,83.6 µM
N#CCN1C(=O)c2cc([N+](=O)[O-])cc3cc([N+](=O)[O-])cc(c23)C1=O,–,26.3 µM,–,28 µM,–,48.2 µM,–,45.9 µM,–,29.8 µM,–,28 µM,–,18.8 µM,–,> 79.9 µM,–,36.6 µM,–,> 42.7 µM
COc1cc2ncc3c(nc4sccn43)c2cc1OC,10.2 µM,26 µM,5.86 µM,32.6 µM,16.4 µM,78.2 µM,13.6 µM,> 100 µM,48.4 µM,> 100 µM,8.38 µM,> 100 µM,15.6 µM,> 100 µM,11.1 µM,29.5 µM,38.2 µM,> 100 µM,13.7 µM,78.2 µM
CSc1ccc(C2=NN(C(C)=O)C(c3ccc(-c4ccc(Cl)cc4)o3)C2)cc1 (stereo not drawn),37.1 µM,> 100 µM,43.2 µM,> 100 µM,29.8 µM,> 100 µM,40 µM,> 100 µM,29.1 µM,> 100 µM,24 µM,> 100 µM,32.8 µM,> 100 µM,37.3 µM,> 100 µM,36.2 µM,> 100 µM,18.7 µM,> 100 µM
O=Cc1ccc2c(c1I)OCO2,–,> 100 µM,–,> 100 µM,–,> 100 µM,–,> 100 µM,–,> 100 µM,–,> 100 µM,–,> 100 µM,–,> 100 µM,–,> 100 µM,–,> 100 µM
c1cc(N2CCN(c3ccc(C4=NCCCN4)cc3)CC2)ccc1C1=NCCCN1,> 69.9 µM,> 100 µM,> 47.6 µM,> 100 µM,> 100 µM,> 100 µM,> 58.6 µM,> 100 µM,21.2 µM,> 100 µM,> 42.1 µM,> 100 µM,–,> 77.9 µM,> 69.4 µM,> 100 µM,> 45.6 µM,> 100 µM,50.2 µM,> 100 µM
O=C(O)c1ccccc1NC(=S)c1ccccc1,–,84.6 µM,–,65.9 µM,–,> 100 µM,–,> 100 µM,–,> 100 µM,–,> 100 µM,–,> 100 µM,–,> 100 µM,–,> 100 µM,–,> 100 µM
O=C(Cc1nc2ccccc2o1)C(=O)Nc1cccc(C(F)(F)F)c1,–,> 100 µM,–,> 100 µM,–,> 100 µM,–,> 100 µM,–,> 100 µM,–,> 100 µM,–,> 100 µM,–,> 100 µM,–,> 100 µM,–,> 100 µM
O=c1c2cc(F)ccc2sc2c(NCCCNCCO)nc3ccccc3c12,1.67 µM,3.03 µM,1.61 µM,3.09 µM,1.87 µM,3.62 µM,1.64 µM,3.19 µM,1.76 µM,3.2 µM,1.84 µM,3.52 µM,1.68 µM,3.17 µM,1.89 µM,3.53 µM,2.08 µM,4.66 µM,1.73 µM,3.32 µM
COc1ccc(/C=C(\C)[N+](=O)[O-])cc1OC,1.69 µM,3.16 µM,1.4 µM,3.17 µM,1.96 µM,3.95 µM,2.54 µM,6.56 µM,2.19 µM,5.11 µM,4.49 µM,16.4 µM,1.36 µM,2.97 µM,1.55 µM,3.12 µM,2.23 µM,4.46 µM,1.81 µM,3.46 µM
Cc1cc(C)c(C2CNCc3cc4c(cc32)CNCC4c2c(C)cc(C)cc2C)c(C)c1 (stereo not drawn),3.76 µg/mL,13.4 µg/mL,3.05 µg/mL,7.45 µg/mL,1.83 µg/mL,3.28 µg/mL,2.53 µg/mL,6.91 µg/mL,2 µg/mL,3.96 µg/mL,2.6 µg/mL,6.74 µg/mL,1.85 µg/mL,4.31 µg/mL,3.22 µg/mL,26.9 µg/mL,2.63 µg/mL,7.49 µg/mL,2.38 µg/mL,6.14 µg/mL
N[C@H](COCc1ccccc1)c1ccccc1,–,> 91.4 µM,–,> 93.6 µM,–,66 µM,–,61.9 µM,–,44.8 µM,–,> 100 µM,–,> 92.2 µM,–,> 100 µM,–,29.2 µM,–,61.8 µM
C[C@@H]1Cc2cc(O)ccc2[C@H]2CC[C@]3(C)/C(=C/COCCN(C)C)CC[C@H]3[C@H]12 (tested in a mixture with another compound),0.0429 µM,0.201 µM,0.324 µM,0.865 µM,0.381 µM,1.44 µM,0.0704 µM,0.208 µM,0.205 µM,0.453 µM,0.309 µM,0.895 µM,0.187 µM,0.389 µM,0.209 µM,0.461 µM,0.363 µM,1.03 µM,0.245 µM,0.78 µM
CC(CO)(Nc1ccc([N+](=O)[O-])cc1[N+](=O)[O-])C(=O)O (stereo not drawn),–,32.7 µM,–,36.1 µM,–,> 100 µM,–,28.8 µM,–,44.5 µM,–,> 100 µM,–,48.2 µM,–,> 100 µM,–,32.8 µM,–,> 100 µM
Oc1c(-c2cc(C(F)(F)F)[nH]n2)cc(Cl)c(OCc2ccc(Cl)cc2)c1-c1ccc(Cl)c(C(F)(F)F)c1,0.593 µM,4.86 µM,0.789 µM,2.19 µM,0.851 µM,2.44 µM,0.361 µM,2.57 µM,0.265 µM,0.941 µM,0.862 µM,2.66 µM,0.967 µM,2.9 µM,0.56 µM,5.28 µM,0.867 µM,1.79 µM,0.159 µM,0.705 µM
Cc1ccncc1C(N)=O,> 100 µM,> 100 µM,> 100 µM,> 100 µM,> 100 µM,> 100 µM,> 100 µM,> 100 µM,> 100 µM,> 100 µM,> 100 µM,> 100 µM,> 100 µM,> 100 µM,> 100 µM,> 100 µM,> 100 µM,> 100 µM,> 100 µM,> 100 µM
COc1ccc2c(-c3ccnc(Nc4cccc(OC(F)(F)F)c4)n3)cnn2n1,1.8 µM,> 25 µM,5.43 µM,> 25 µM,1.26 µM,> 12.9 µM,1.06 µM,4.79 µM,1.1 µM,9.56 µM,0.772 µM,3.95 µM,1.02 µM,6.47 µM,4.05 µM,12.2 µM,1.3 µM,> 19.9 µM,1.03 µM,3.96 µM
CCN1C(=O)N(CC)C2C1NN=c1s/c(=C\c3ccc(F)cc3)c(=O)n12 (stereo not drawn),0.336 µM,> 100 µM,28.9 µM,> 100 µM,0.136 µM,> 100 µM,0.218 µM,> 100 µM,0.0865 µM,5.7 µM,0.0913 µM,> 100 µM,0.338 µM,> 100 µM,10.5 µM,> 100 µM,0.277 µM,1.43 µM,0.211 µM,> 100 µM
CC1c2ccccc2CCN1c1ccc(CO)c(Cl)c1 (stereo not drawn),22.6 µM,> 81 µM,22.7 µM,54.6 µM,22.5 µM,58.2 µM,0.0864 µM,3.3 µM,13.8 µM,27.1 µM,22.6 µM,> 72.5 µM,22.2 µM,49.8 µM,0.0346 µM,0.187 µM,0.19 µM,0.626 µM,0.0345 µM,12.6 µM
